Experimental data taken from US10323038B2, “Pyrazole compounds and methods of making and using same” (ABIDE THERAPEUTICS, INC., priority 2015, dated 2019).

Columns and labels:
[1] = molecular target: FAAH (Mus musculus (Mouse), UniProt O08914); experiment: In vitro competitive activity-based protein profiling, FAAH (mouse); format: biochemical; conditions: for inhibition at 1 µM: read-out: FAAH % inh. 1 μM (mouse)
Description: (§1) In Vitro Competitive Activity-Based Protein Profiling.
(§2) Proteomes (mouse brain membrane fraction or cell lysates for mouse assays; human prefrontal cortex or cell membrane fractions for human assays) (50 μL, 1.0 mg/mL total protein concentration) were preincubated with varying concentrations of inhibitors at 37° C. After 30 min, FP—Rh or HT-01 (1.0 μL, 50 μM in DMSO) was added and the mixture was incubated for another 30 min at 37° C. Reactions were quenched with SDS loading buffer (15 μL-4×) and run on SDS-PAGE. Following gel imaging, serine hydrolase activity was determined by measuring fluorescent intensity of gel bands corresponding to MAGL and FAAH using ImageJ 1.43u software.

[2] = molecular target: MAGL (Mus musculus (Mouse), UniProt O35678); experiment: In vitro competitive activity-based protein profiling, MAGL (mouse); format: biochemical; conditions: for inhibition at 1 µM: read-out: MAGL % inh. 1 μM (mouse)
Description: as §1, §2

FAAH, sequence (O08914 whole entry): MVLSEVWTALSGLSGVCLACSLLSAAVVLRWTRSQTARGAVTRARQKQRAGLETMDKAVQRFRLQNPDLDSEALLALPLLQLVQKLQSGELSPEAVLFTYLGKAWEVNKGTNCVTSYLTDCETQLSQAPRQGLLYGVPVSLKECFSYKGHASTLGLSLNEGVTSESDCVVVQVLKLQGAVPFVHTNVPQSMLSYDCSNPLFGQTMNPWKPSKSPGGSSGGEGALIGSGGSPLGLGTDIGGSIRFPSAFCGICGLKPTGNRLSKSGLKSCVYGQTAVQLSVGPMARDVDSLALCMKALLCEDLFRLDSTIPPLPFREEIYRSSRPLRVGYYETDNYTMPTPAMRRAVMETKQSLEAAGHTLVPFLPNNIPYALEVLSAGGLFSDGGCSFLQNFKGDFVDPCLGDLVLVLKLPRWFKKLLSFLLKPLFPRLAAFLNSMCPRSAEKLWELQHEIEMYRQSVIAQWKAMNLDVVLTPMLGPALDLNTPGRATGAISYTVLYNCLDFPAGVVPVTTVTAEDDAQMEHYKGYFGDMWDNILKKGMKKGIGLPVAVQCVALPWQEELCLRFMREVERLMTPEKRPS
MAGL, sequence (O35678 whole entry): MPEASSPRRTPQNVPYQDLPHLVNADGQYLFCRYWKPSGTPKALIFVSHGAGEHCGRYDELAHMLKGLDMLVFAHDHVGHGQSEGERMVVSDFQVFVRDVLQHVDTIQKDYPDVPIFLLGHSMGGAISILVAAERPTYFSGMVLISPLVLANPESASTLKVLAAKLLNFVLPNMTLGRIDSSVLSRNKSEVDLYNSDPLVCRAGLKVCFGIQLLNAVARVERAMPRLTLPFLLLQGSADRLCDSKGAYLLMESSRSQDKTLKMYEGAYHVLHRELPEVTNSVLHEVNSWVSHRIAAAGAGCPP

Structure (SMILES)	inhibition at 1 µM [1]	IC50 [2]	inhibition at 1 µM [2]	IC50 [1]
CS(=O)(=O)Nc1cnn(C(=O)N2CCN(Cc3cc(N4CCCC4)cc(C(F)(F)F)c3)CC2)c1 [Example 295, N-(1-(4-(3-(pyrrolidin-1-yl)-5-(trifluoromethyl)benzyl)piperazine-1-carbonyl)-1H-pyrazol-4-yl)methanesulfonamide]	≥ 75%	–	≥ 75%	–
CC(=O)N(C)c1cnn(C(=O)N2CCC3(CC2)CN(Cc2ccc(F)cc2)C3)c1 [Example 31, N-(1-(2-(4-fluorobenzyl)-2,7-diazaspiro[3.5]nonane-7-carbonyl)-1H-pyrazol-4-yl)-N-methylacetamide]	25 to 50%	–	≥ 75%	–
CC(=O)N(C)c1cnn(C(=O)N2CCN(Cc3cccc(N4CCCC4)c3)CC2)c1 [Example 208, N-methyl-N-(1-(4-(3-(pyrrolidin-1-yl)benzyl)piperazine-1-carbonyl)-1H-pyrazol-4-yl)acetamide]	≥ 75%	≤ 100 nM	≥ 75%	100 to 1000 nM
CC(=O)N(C)c1cnn(C(=O)N2CC3(CCN(Cc4ccc(N5CCOCC5)cc4C)CC3)C2)c1 [Example 23, N-methyl-N-(1-(7-(2-methyl-4-morpholinobenzyl)-2,7-diazaspiro[3.5]nonane-2-carbonyl)-1H-pyrazol-4-yl)acetamide]	25 to 50%	–	25 to 50%	–
COc1ccc(CN2CC3(CCN(C(=O)n4cc(N(C)C(C)=O)cn4)CC3)C2)cc1 [Example 33, N-(1-(2-(4-methoxybenzyl)-2,7-diazaspiro[3.5]nonane-7-carbonyl)-1H-pyrazol-4-yl)-N-methylacetamide]	25 to 50%	–	50 to 75%	–
CC(=O)N(C)c1cnn(C(=O)N2CC3CN(Cc4ccc(OC5CCN(C6CC6)CC5)cc4Cl)CC3C2)c1 (stereo not shown) [Example 270, N-(1-(5-(2-chloro-4-((1-cyclopropylpiperidin-4-yl)oxy)benzyl)octahydropyrrolo[3,4-c]pyrrole-2-carbonyl)-1H-pyrazol-4-yl)-N-methylacetamide]	≥ 75%	–	≥ 75%	–
CC(=O)N(C)c1cnn(C(=O)N2CCN(Cc3ccc(N4CCCC4)cc3)CC2)c1 [Example 197, N-methyl-N-(1-(4-(4-(pyrrolidin-1-yl)benzyl)piperazine-1-carbonyl)-1H-pyrazol-4-yl)acetamide]	≥ 75%	100 to 1000 nM	≥ 75%	100 to 1000 nM
CC(=O)Nc1cnn(C(=O)N2CC3CN(Cc4cc(Cl)cc(C(F)(F)F)c4)CC3C2)c1 (stereo not shown) [Example 315, N-(1-(5-(3-chloro-5-(trifluoromethyl)benzyl)octahydropyrrolo [3,4-c]pyrrole-2-carbonyl)-1H-pyrazol-4-yl)acetamide]	≥ 75%	–	≥ 75%	–
CC(=O)N(C)c1cnn(C(=O)N2CCC3(CC2)CN(Cc2cccc(Cl)c2)C3)c1 [Example 34, N-(1-(2-(3-chlorobenzyl)-2,7-diazaspiro[3.5]nonane-7-carbonyl)-1H-pyrazol-4-yl)-N-methylacetamide]	≥ 75%	≤ 100 nM	≥ 75%	≤ 100 nM
CC(=O)N(C)c1cnn(C(=O)N2CC3CN(Cc4cc(C)cc(C)c4)CC3C2)c1 (stereo not shown) [Example 108, N-(1-(5-(3,5-dimethylbenzyl)octahydropyrrolo[3,4-c]pyrrole-2-carbonyl)-1H-pyrazol-4-yl)-N-methylacetamide]	≥ 75%	100 to 1000 nM	≥ 75%	≤ 100 nM
CS(=O)(=O)Nc1cnn(C(=O)N2CCC3(CC2)CN(Cc2ccc(N4CCCC4)cc2C(F)(F)F)C3)c1 [Example 281, N-(1-(2-(4-(pyrrolidin-1-yl)-2-(trifluoromethyl)benzyl)-2,7-diazaspiro[3.5]nonane-7-carbonyl)-1H-pyrazol-4-yl)methanesulfonamide]	≥ 75%	–	≥ 75%	–
CC(=O)N(C)c1cnn(C(=O)N2C[C@H]3C[C@@H](N(C)Cc4cc(N5CCCC5)ccc4C(F)(F)F)C[C@H]3C2)c1 [Example 167, N-methyl-N-(1-(cis-5-(methyl(5-(pyrrolidin-1-yl)-2-(trifluoromethyl)benzyl)amino)octahydrocyclopenta[c]pyrrole-2-carbonyl)-1H-pyrazol-4-yl)acetamide]	≥ 75%	–	≥ 75%	–
CC(=O)N(C)c1cnn(C(=O)N2CCC3(CCN(Cc4ccc(-c5cnccn5)cc4Cl)C3)C2)c1 (stereo not shown) [Example 264, N-(1-(7-(2-chloro-4-(pyrazin-2-yl)benzyl)-2,7-diazaspiro[4.4]nonane-2-carbonyl)-1H-pyrazol-4-yl)-N-methylacetamide]	≥ 75%	–	≥ 75%	–
CC(=O)N(C)c1cnn(C(=O)N2CCN(Cc3ccc(CN4CCOCC4)cc3)CC2)c1 [Example 199, N-methyl-N-(1-(4-(4-(morpholinomethyl)benzyl)piperazine-1-carbonyl)-1H-pyrazol-4-yl)acetamide]	0 to 25%	–	50 to 75%	–

Results, then the compound that gave them:

inhibition at 1 µM [1]	IC50 [2]	inhibition at 1 µM [2]	IC50 [1]	Structure (SMILES)
≥ 75%	100 to 1000 nM	≥ 75%	–	CC(=O)N(C)c1cnn(C(=O)N2CC3CN(Cc4cccc(Oc5ccccn5)c4)CC3C2)c1 (stereo not shown) [Example 238, N-methyl-N-(1-(5-(3-(pyridin-2-yloxy)benzyl)octahydropyrrolo[3,4-c]pyrrole-2-carbonyl)-1H-pyrazol-4-yl)acetamide]
≥ 75%	≤ 100 nM	≥ 75%	≤ 100 nM	CC(=O)N(C)c1cnn(C(=O)N2CC3CN(Cc4cc(Cl)ccc4Cl)CC3C2)c1 (stereo not shown) [Example 109, N-(1-(5-(2,5-dichlorobenzyl)octahydropyrrolo[3,4-c]pyrrole-2-carbonyl)-1H-pyrazol-4-yl)-N-methylacetamide]
≥ 75%	≤ 100 nM	≥ 75%	≤ 100 nM	CC(=O)N(C)c1cnn(C(=O)N2CC3CN(Cc4ccc(Oc5ccc(Cl)cc5)cc4)CC3C2)c1 (stereo not shown) [Example 245, N-(1-(5-(4-(4-chlorophenoxy)benzyl)octahydropyrrolo [3,4-c]pyrrole-2-carbonyl)-1H-pyrazol-4-yl)-N-methylacetamide]
≥ 75%	≤ 100 nM	≥ 75%	≤ 100 nM	CC(=O)N(C)c1cnn(C(=O)N2CC3CN(Cc4cccc(Cl)c4C)CC3C2)c1 (stereo not shown) [Example 103, N-(1-(5-(3-chloro-2-methylbenzyl)octahydropyrrolo[3,4-c]pyrrole-2-carbonyl)-1H-pyrazol-4-yl)-N-methylacetamide]
≥ 75%	–	≥ 75%	–	CC(=O)N(C)c1cnn(C(=O)N2CC3CN(Cc4ccc(-c5ccncn5)cc4Cl)CC3C2)c1 (stereo not shown) [Example 272, N-(1-(5-(2-chloro-4-(pyrimidin-4-yl)benzyl)octahydropyrrolo[3,4-c]pyrrole-2-carbonyl)-1H-pyrazol-4-yl)-N-methylacetamide]
≥ 75%	≤ 100 nM	≥ 75%	≤ 100 nM	CC(=O)N(C)c1cnn(C(=O)N2CC3CN(Cc4ccc(C(F)(F)F)c(N5CCCC5)c4)CC3C2)c1 (stereo not shown) [Example 130, N-methyl-N-(1-(5-(3-(pyrrolidin-1-yl)-4-(trifluoromethyl)benzyl)octahydropyrrolo[3,4-c]pyrrole-2-carbonyl)-1H-pyrazol-4-yl)acetamide]
≥ 75%	–	≥ 75%	–	CC(=O)N(C)c1cnn(C(=O)N2CC3CN(Cc4ccc(Oc5ccnnc5)cc4C(F)(F)F)CC3C2)c1 (stereo not shown) [Example 258, N-methyl-N-(1-(5-(4-(pyridazin-4-yloxy)-2-(trifluoromethyl)benzyl)octahydropyrrolo [3,4-c]pyrrole-2-carbonyl)-1H-pyrazol-4-yl)acetamide]
≥ 75%	–	25 to 50%	–	COc1ccc(CN2CC3CN(C(=O)n4cc(N(C)C(C)=O)cn4)CC3C2)cc1 (stereo not shown) [Example 179, N-(1-(5-(4-methoxybenzyl)octahydropyrrolo[3,4-c]pyrrole-2-carbonyl)-1H-pyrazol-4-yl)-N-methylacetamide]
≥ 75%	–	≥ 75%	–	CC(=O)N(C)c1cnn(C(=O)N2CC3CN(Cc4ccc(Oc5cncnc5)cc4C(F)(F)F)CC3C2)c1 (stereo not shown) [Example 265, N-methyl-N-(1-(5-(4-(pyrimidin-5-yloxy)-2-(trifluoromethyl)benzyl)octahydropyrrolo [3,4-c]pyrrole-2-carbonyl)-1H-pyrazol-4-yl)acetamide]
≥ 75%	–	50 to 75%	–	CC(=O)N(C)c1cnn(C(=O)N2CC3CN(Cc4ccc(Oc5ccnnc5)cc4Cl)CC3C2)c1 (stereo not shown) [Example 257, N-(1-(5-(2-chloro-4-(pyridazin-4-yloxy)benzyl)octahydropyrrolo[3,4-c]pyrrole-2-carbonyl)-1H-pyrazol-4-yl)-N-methylacetamide]
≥ 75%	≤ 100 nM	≥ 75%	≤ 100 nM	CC(=O)N(C)c1cnn(C(=O)N2CC3CN(Cc4ccc(C(F)(F)F)c(N5CCOCC5)c4)CC3C2)c1 (stereo not shown) [Example 124, N-methyl-N-(1-(5-(3-morpholino-4-(trifluoromethyl)benzyl)octahydropyrrolo[3,4-c]pyrrole-2-carbonyl)-1H-pyrazol-4-yl)acetamide]
≥ 75%	≤ 100 nM	≥ 75%	≤ 100 nM	CC(=O)N(C)c1cnn(C(=O)N2CC3CN(Cc4cccc(Oc5cccc(Cl)c5)c4)CC3C2)c1 (stereo not shown) [Example 244, N-(1-(5-(3-(3-chlorophenoxy)benzyl)octahydropyrrolo [3,4-c]pyrrole-2-carbonyl)-1H-pyrazol-4-yl)-N-methylacetamide]
